Data taken from publication PMC9225715, “Development of PD3 and PD3-B for PDEδ inhibition to modulate KRAS activity” (Journal of Enzyme Inhibition and Medicinal Chemistry, 2022).
Read-outs that look alike come from different tables or passages of the source.

Key:
PDEδ [1] = target: T1, PDEδ (Homo sapiens, UniProt O43924); assay: Fluorescence polarisation (FP)-based binding assay
T1 construct: made in house; host or cells: E. coli BL21(DE3)
Experimental: To evaluate the binding affinities of PDs to PDEδ, we also carried out a fluorescence polarisation (FP)-based binding assay after incubation of PDs with PDEδ. […] In the presence of 0.5 µM PD compounds, the polarisation value (mP value) increased following treatment with purified PDEδ in a dose-dependent manner until treatment with excess PDEδ induced saturation of binding. Among the tested compounds, 8 compounds were selected for further evaluation and SAR analysis. The binding curves for the selected 8 compounds are shown with their Kd values in Supplemental Figure S3.
Figure 3. Binding affinities of PDs measured by fluorescence polarisation. (A) Representative binding curve of PDs (PD3) titrated with PDEδ. The FP value was measured in PBS buffer (pH 7.2) containing 8 concentrations (0, 0.5, 1, 2, 4, 8, 16 and 32 μM) of PDEδ mixed with 0.5 μM PDs. Ex: 440 nm, Em: 526 nm; (B) Kd value and half-life of each compound; (C, D) Kinetic trace of PD3 and PD7 in the competition assay. PD3 was shown as a compound with the longest retention time (slow dissociation), whereas PD7 was shown as a compound with the shortest retention time (fast dissociation). The half-life was obtained by a competition binding assay using excess deltarasin. The optimal concentration of PDEδ for the competition assay was determined using the Kd value and PD concentration (0.5 μM) for making more than 68% of the binding complex. Ex: 430 nm, Em: 520 nm. TEXT PRINTED IN THE PICTURE: (A) PD3: Best-fit values Bmax: 261.7; Best-fit values Kd: 0.4991; Std. Error Bmax: 17.98; Std. […] Error Bmax 17.98 (last digit 8 or 6) and Std. Error Kd 0.1956 (5 and 6 not certain) / Panels C and D: k and half-life are printed without a label of their own; assigned to PD3 and PD7 from the panel legends (PDEδ+PD3+Del, PDEδ+PD7+Del)
PDEδ was diluted to make a series of two-fold dilutions with a starting concentration of 32 µM. The diluted solution was mixed with PBS buffer [137 mM NaCl, 2.7 mM KCl, 10 mM Na2HPO4, 2 mM KH2PO4 (pH 7.2)] and then the mixture was loaded on a 96 well black plate (SPL life Science, Gyeonggi-do, Republic of Korea). Compounds were transferred to the wells of assay plate and the final concentration of compounds was fixed to 0.5 µM. After the addition of the compound, the assay plates were incubated for 2 h at 4 °C. FP values were detected by SpectraMax M5 microplate reader (Molecular Devices, San Jose, CA) at the maximum absorption and emission wavelengths of PD compounds in assay buffer. Kd values were determined by previously reported method.

PDEδ [2] = target: T1, PDEδ; assay: Native gel electrophoresis with in-gel fluorescence (target specificity); type: binding; conditions: 5 or 50 µM PD3, PDEδ-overexpressing bacterial lysate or purified PDEδ, 12% native gel
Experimental: We also conducted native gel electrophoresis to further verify the specific binding of PD3 to native PDEδ using in-gel fluorescence scanning. […] We assumed that PD3 bound within the tertiary structure would be identified on the native gel. PD3 was incubated with bacterial lysate containing the overexpressed PDEδ protein (Figure 4(C,D), lanes 1–3) or purified PDEδ (Figure 4(C,D), lanes 4–6), and then these samples were run in a native gel to avoid denaturation of the protein. The in-gel fluorescence shown in Figure 4(C) (Ex: 312 nm, Em: 585–625 nm) was compared to the same gel stained with Coomassie that visualised the protein bands (Figure 4(D)), which confirmed the formation of the PD3-target protein complex. As expected, the fluorescence band was detected at the location of PDEδ and only detected in the lane with PD3 (lanes 2, 3, 5, and 6).
PD3 (5 or 50 µM) was added to the bacterial lysate (390 µM) or purified PDEδ protein (22.9 µM) and the mixture was incubated for 2 h at 4 °C. The samples were loaded on each lane and separated by 12% native PAGE in a running buffer [25 mM Tris-HCl (pH 8.0), 500 mM NaCl, 10 mM imidazole, 10% Glycerol] with 1/4 pellet of protease inhibitor (Roche, Penzberg, Upper Bavaria, Germany). The gels were run at 70 V for 2.5 h, followed by in-gel fluorescence measurement. The same gel was stained by Coomassie brilliant blue to visualise protein bands.

T1 sequence (O43924 whole entry): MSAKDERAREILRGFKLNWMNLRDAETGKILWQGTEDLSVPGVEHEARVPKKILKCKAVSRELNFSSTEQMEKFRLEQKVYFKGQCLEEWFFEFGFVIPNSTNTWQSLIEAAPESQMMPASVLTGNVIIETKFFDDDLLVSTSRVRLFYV

Kd (PDEδ [1]; 0.5 µM PD titrated with PDEδ, PBS pH 7.2, mean ± SD of three independent experiments, read-out: Kd value): 491 ± 12 nM | Kd (PDEδ [1]; representative binding curve, Figure 3(A) inset, read-out: Best-fit values Kd): 499 nM
SMILES: Cc1ccc(-c2nc3ccccc3c3cc4ccccn4c23)cc1 [PD3, 6-(p-tolyl)indolizino[3,2-c]quinoline]
Binding specificity to PDEδ by in-gel fluorescence (PDEδ [2]): specifically binds to PDEδ in bacterial lysates
